“Also recorded” adds a separate entry of the source. Counter-ions that a name gives are not always drawn. Like-named read-outs stand apart in the source and are kept apart here.
Columns and labels:
[1] = test system: HTB94 chondrosarcoma cells; experiment: Accumulation of endogenous TIMP-3 in medium of HTB94 cells; assay type: cell-based; details: 200 µg/ml compound, 36 hours, immunoblotting
Method: Cells (HTB94 chondrosarcoma cells, primary porcine chondrocytes, or human osteoarthritic chondrocytes) were plated overnight (6 × 10^5 cells per well of a 12-well plate) in DMEM containing 10% FCS and washed three times in serum-free DMEM.
Media were harvested, precipitated with trichloroacetic acid, and analyzed by immunoblotting using a rabbit anti–TIMP-3 polyclonal antibody (AB6000; Millipore, Hertfordshire, UK) and an alkaline phosphatase–conjugated anti-rabbit secondary antibody (Promega). […]

[2] = test system: porcine cartilage explants; experiment: Aggrecan release from porcine cartilage explants (DMMB assay, neo-epitope immunoblotting); assay type: cell-based; details: porcine cartilage explants; for protection of cartilage (release of aggrecan fragments) compared with suramin: 200 µg/ml compound; for IC50: Sus scrofa
Method: The effects of suramin on cartilage degradation were assessed using porcine or human cartilage explants. Explants were rested for 48 hours after dissection and were washed with serum-free DMEM. […]
Aggrecan degradation was analyzed by quantifying aggrecan fragments released into the conditioned media using the dimethylmethylene blue (DMMB) dye-binding assay ([Farndale et al., 1986]) (mean ± S.D., n = 3) and by immunoblotting with neo-epitope antibodies that recognize ADAMTS-cleaved but not intact aggrecan. For immunoblotting, conditioned media were deglycosylated by adding an equal volume of 200 mM sodium acetate and 50 mM Tris/HCl, pH 6.8, containing chondroitinase and β-endoglycosidase (0.05 U each; 18 hours, 37°C; Sigma-Aldrich). Aggrecan fragments were precipitated by adding five volumes of ice-cold acetone (18 hours, −20°C). After centrifugation (13,000 rpm, 10 minutes, 4°C), pellets were resuspended in SDS sample buffer, separated by electrophoresis on a 6% (v/v) polyacrylamide gel, and blotted onto polyvinylidene fluoride. Membranes were blocked with 5% (m/v) BSA in Tris-buffered saline and incubated with either a rabbit antibody that recognizes the AGEG neo-epitope generated by ADAMTS cleavage of the TAQE^1771∼^1772AGEG bond of aggrecan ([Troeberg et al., 2008]) or a mouse antibody that recognizes the ARGSV neo-epitope generated by ADAMTS cleavage of the NITEGE^373∼^374ARGSV bond ([Hughes et al., 1995]).

human TIMP-3 = target: T1, human TIMP-3 (Homo sapiens, UniProt P35625); experiment: Solid-phase binding of TIMP-3 to immobilized suramin or analogs (ELISA); details: TIMP-3 0.4–50 nM; for EC50: plates coated with 10 µg/ml compound, one-site specific binding model, mean ± S.E., n = 3; for Kd: solid-phase binding assay, plates coated 10 µg/ml, read-out: KD value for TIMP-3 binding to immobilized compound
T1 construct: made in house; host or cells: human embryonic kidney 293 cells
T1 sequence (P35625 24-211): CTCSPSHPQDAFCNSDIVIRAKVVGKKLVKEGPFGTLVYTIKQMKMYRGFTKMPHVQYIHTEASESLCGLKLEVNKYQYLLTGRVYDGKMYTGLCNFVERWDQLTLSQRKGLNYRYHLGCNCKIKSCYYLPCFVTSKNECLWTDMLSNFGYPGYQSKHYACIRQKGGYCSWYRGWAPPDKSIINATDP
Method: Glycosaminoglycan-binding ELISA plates (BD Life Sciences, Swindon, UK) were coated with suramin or its analogs (10 µg/ml in Tris-buffered saline, 18 hours, 25°C) ([Mahoney et al., 2004]) and wells were blocked with 0.2% gelatin in PBS (1 hour, 37°C). Wells were washed in PBS containing 0.1% Tween 20 after this and every subsequent step. Purified FLAG-tagged human TIMP-3 (0.4–50 nM) in blocking solution was applied to wells (3 hours, 37°C), and binding was detected with anti-FLAG M2 primary antibody and anti-mouse horseradish peroxidase–conjugated secondary antibody. 3,3′,5,5′-Tetramethylbenzidine (Becton Dickinson, Swindon, UK) substrate was added, the reaction was stopped when appropriate by adding 2 N H2SO4, and absorbance at 450 nm was measured using a FLUOstar Omega microplate reader (BMG Labtech, Aylesbury, Buckinghamshire, UK). Data (mean ± S.E., n = 3 technical repeats) were analyzed using Prism 7.0b software (GraphPad Software, La Jolla, CA) and EC50 values determined using a one-site specific binding model. Flat planar dimensions of suramin analogs were estimated using ICM-Pro software (Molsoft LLC, San Diego, CA).

[3] = test system: purinergic signaling in chondrocytes; parameters: method as in Varani et al., 2008; details: compared with suramin; ref Varani et al., 2008; cited from earlier work
[4] = retinoic acid 1 µM, 48 hours, DMMB assay

Question: What does the source list for `Cc1ccc(C(=O)Nc2ccc(CP(=O)([O-])O)cc2CP(=O)([O-])O)cc1NC(=O)c1cccc(NC(=O)Nc2cccc(C(=O)Nc3cc(C(=O)Nc4ccc(CP(=O)([O-])O)cc4CP(=O)([O-])O)ccc3C)c2)c1.[Na+].[Na+].[Na+].[Na+]` [NF546]?
Answer: TIMP-3 accumulation in the medium relative to suramin, defined as 100% [1]: minimal efficacy; also recorded: less effective; protection of cartilage (release of aggrecan fragments) compared with suramin [2, 4]: less effective

Question: For `O=C(Nc1cccc(C(=O)Nc2cc(C(=O)Nc3ccc(S(=O)(=O)O)c4cc(S(=O)(=O)O)cc(S(=O)(=O)O)c34)ccc2F)c1)Nc1cccc(C(=O)Nc2cc(C(=O)Nc3ccc(S(=O)(=O)O)c4cc(S(=O)(=O)O)cc(S(=O)(=O)O)c34)ccc2F)c1` [NF157, 8,8′-[carbonylbis[imino-3,1-phenylenecarbonylimino(4-fluoro-3,1-phenylene)carbonylimino]]bis-1,3,5-naphthalenetrisulfonic acid hexasodium salt], which EC50 (human TIMP-3) is on record?
Answer: 1.55 ± 0.11 nM

Question: What about the Kd (human TIMP-3) of the same compound?
Answer: 1.5 ± 0.11 nM

Question: For `O=C(Nc1cc(C(=O)Nc2ccc(S(=O)(=O)O)cc2S(=O)(=O)O)cc(C(=O)Nc2ccc(S(=O)(=O)O)cc2S(=O)(=O)O)c1)Nc1cc(C(=O)Nc2ccc(S(=O)(=O)O)cc2S(=O)(=O)O)cc(C(=O)Nc2ccc(S(=O)(=O)O)cc2S(=O)(=O)O)c1` [NF449, 4,4′,4′′,4′′′-[carbonylbis(imino-5,1,3-benzenetriyl-bis(carbonylimino))]tetrakis-1,3-benzenedisulfonic acid, octasodium salt], which EC50 (human TIMP-3) is on record?
Answer: 4.66 ± 0.69 nM

Question: With `O=C(Nc1cccc(C(=O)Nc2ccc(S(=O)(=O)O)c3cc(S(=O)(=O)O)cc(S(=O)(=O)O)c23)c1)Nc1cccc(C(=O)Nc2ccc(S(=O)(=O)O)c3cc(S(=O)(=O)O)cc(S(=O)(=O)O)c23)c1` [NF023, 8,8′-[carbonylbis(imino-3,1-phenylenecarbonylimino)]bis-1,3,5-naphthalene-trisulphonic acid, hexasodium salt] as the compound, how does the EC50 (human TIMP-3) read?
Answer: 26.5 ± 7.5 nM

Question: Which EC50 (human TIMP-3) does the source give for `O=C(Nc1cc(C(=O)Nc2ccc(S(=O)(=O)O)cc2)cc(C(=O)Nc2ccc(S(=O)(=O)O)cc2)c1)Nc1cc(C(=O)Nc2ccc(S(=O)(=O)O)cc2)cc(C(=O)Nc2ccc(S(=O)(=O)O)cc2)c1` [NF110, 4,4′,4′′,4′′′-[carbonylbis[imino-5,1,3-benzenetriylbis(carbonylimino)]]tetrakisbenzenesulfonic acid tetrasodium salt] here?
Answer: 6.88 ± 0.96 nM

Question: For `Cc1ccc(C(=O)Nc2ccc(CP(=O)([O-])O)cc2CP(=O)([O-])O)cc1NC(=O)c1cccc(NC(=O)Nc2cccc(C(=O)Nc3cc(C(=O)Nc4ccc(CP(=O)([O-])O)cc4CP(=O)([O-])O)ccc3C)c2)c1.[Na+].[Na+].[Na+].[Na+]` [NF546, 4,4′-(carbonylbis(imino-3,1-phenylene-carbonylimino-3,1-(4-methyl-phenylene)carbonylimino))-bis(1,3-xylene-α,α′-diphosphonic acid tetrasodium salt], which EC50 (human TIMP-3) is on record?
Answer: > 100 nM

Question: For `Cc1ccc(C(=O)Nc2cc(S(=O)(=O)[O-])cc3ccc(S(=O)(=O)[O-])cc23)cc1NC(=O)Nc1cc(C(=O)Nc2cc(S(=O)(=O)[O-])cc3ccc(S(=O)(=O)[O-])cc23)ccc1C.[Na+].[Na+].[Na+].[Na+]` [NF340, 4,4′-(carbonylbis(imino-3,1-(4-methyl-phenylene)carbonylimino))bis(naphthalene-2,6-disulfonic acid) tetrasodium salt], which EC50 (human TIMP-3) is on record?
Answer: > 100 nM

Question: What about the “TIMP-3 accumulation in the medium relative to suramin, defined as 100%” value [1] of the same compound?
Answer: minimal efficacy; also recorded: less effective

Question: What about the “protection of cartilage (release of aggrecan fragments) compared with suramin” value [2, 4] of the same compound?
Answer: less effective

Question: Which EC50 (human TIMP-3) does the source give for `O=C(Nc1ccc(C(=O)Nc2ccc(C(=O)Nc3ccc(S(=O)(=O)O)c4cc(S(=O)(=O)O)cc(S(=O)(=O)O)c34)cc2)cc1)Nc1ccc(C(=O)Nc2ccc(C(=O)Nc3ccc(S(=O)(=O)O)c4cc(S(=O)(=O)O)cc(S(=O)(=O)O)c34)cc2)cc1` [NF279, 8,8′-[carbonylbis(imino-4,1-phenylenecarbonylimino-4,1-phenylenecarbonylimino)]bis-1,3,5-naphthalenetrisulfonic acid hexasodium salt] here?
Answer: 0.85 ± 0.09 nM

Question: And the Kd (human TIMP-3)?
Answer: 0.85 ± 0.09 nM

Question: What about the “TIMP-3 accumulation in the medium relative to suramin, defined as 100%” value [1] of the same compound?
Answer: 233% ± 73%

Question: What about the IC50 ([2]; 48 h, retinoic acid 1 µM, 48 hours, DMMB assay, read-out: IC50 for inhibition of aggrecan release) of the same compound?
Answer: 15.6 ± 10 µg/mL

Question: And the IC50 ([2]; µg/ml value given in molar units, read-out: IC50 for chondroprotective activity)?
Answer: 11600 nM

Question: What about the “improvement of IC50 value relative to suramin” value [2] of the same compound?
Answer: 6 fold

Question: And the “protection of cartilage (release of aggrecan fragments) compared with suramin” value [2, 4]?
Answer: markedly improved activity

Question: What about the “IC50 for inhibition of aggrecan release” value [2, 4] of the same compound?
Answer: 15 µg/mL

Question: What about the “inhibition of purinergic signaling in chondrocytes” value [3] of the same compound?
Answer: less effective than suramin

From paper PMC5588548, “Suramin Inhibits Osteoarthritic Cartilage Degradation by Increasing Extracellular Levels of Chondroprotective Tissue Inhibitor of Metalloproteinases 3” (Molecular Pharmacology, 2017)
